The values that follow come from publication PMC13124246 (European journal of medicinal chemistry, 2022).

The subject of data set [1] is Mouse myoblasts cell line C2C12. The experiment in a line: Host cell cytotoxicity. In kind it is cell-based. The settings on record: mouse myoblasts vs T. cruzi, compounds tested up to 10 μM.
The subject of the next data set is cruzain or TbrCatL. Description: Screening of the Krake et al. compound set against cruzain and TbrCatL. In kind it is biochemical. The settings on record: 100 μM.
The target in the next data set is cruzain (Trypanosoma cruzi, UniProt P25779). The experiment in a line: Cruzain enzymatic inhibition assay. The format is biochemical. The settings on record: for competitive behavior against cruzain: compound at 1 and 0.25 μM, substrate 0.156–10 μM.
cruzain, sequence (P25779 123-337 limits assumed): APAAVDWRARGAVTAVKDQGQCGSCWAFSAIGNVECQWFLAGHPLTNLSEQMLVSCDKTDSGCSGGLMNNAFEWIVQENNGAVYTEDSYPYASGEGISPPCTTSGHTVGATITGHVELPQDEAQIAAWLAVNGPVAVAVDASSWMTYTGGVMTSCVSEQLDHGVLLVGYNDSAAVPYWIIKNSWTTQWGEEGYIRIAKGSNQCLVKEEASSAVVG
For data set [2], the target named is T1, TbrCatL (Trypanosoma brucei rhodesiense, UniProt Q95PM0). The format is biochemical, T. brucei.
Data set [3] concerns the target T1, TbrCatL. The note with it: read-out: IC50 TbrCatL; cited from earlier work.
A further data set concerns cathepsins S (human). The settings on record: human enzyme; cited from earlier work.
The test system of a further data set is cathepsins B (rat). The settings on record: rat enzyme; cited from earlier work.
In data set [4] the test system is T. cruzi Y strain parasites. The settings on record: in vitro; cited from earlier work.
For the next data set, the system named is macrophages. The settings on record: cited from earlier work.

Structures can show the parent of a compound that is named as a salt. Some results are limits rather than exact numbers.

As for `O=C(Cn1ccnc1[N+](=O)[O-])NCc1ccccc1` [Benznidazole], the “SI: selectivity index determined as CC50/EC50” value (shortened to “SI: selectivity index”) in [1] is reported as above 9.
Consider `CN(C)CCCNCc1ccc(-c2ccc(Cl)cc2Cl)o1` [Compound 9], for which, in the data set on cruzain or TbrCatL, the “average inhibition against cruzain or TbrCatL” value is on record as “greater than 70%”.
On the same count and under the same terms, the value for `CN(C)CCCNCc1ccc(-c2ccc(Br)cc2)o1` [Compound 12] was “greater than 70%”.
For the compound `Clc1cc(Br)ccc1-c1ccc(CNCCN2CCOCC2)o1` [Compound 39, N-((5-(4-bromo-2-chlorophenyl)furan-2-yl)methyl)-2-morpholinoethan-1-amine dihydrochloride], the “SI: selectivity index” value in data set [1] is listed as above 17.
For the compound `N/C(S)=N/N=C/c1ccc(-c2ccc(Cl)cc2)o1` [Compound 44, 2-((5-(4-chlorophenyl)furan-2-yl)methylene)hydrazine-1-carbothioamide], the “IC50 against cruzain relative to IC50 against TbrCatL (fold higher)” value on cruzain (Table 2 values) is listed as “up to 25 fold”. Also, on cruzain, the “competitive behavior against cruzain” value is listed as “did not observe competitive behavior”. Besides, the “SI: selectivity index” value in data set [1] was above 18. At TbrCatL [2], the “effect of 0.1% Triton X-100 on IC50 against TbrCatL” value is “reduced the compounds’ potencies”.
Regarding `NC(=S)N/N=C/c1ccc(-c2ccc(Br)cc2Cl)o1` [Compound 45, 2-((5-(4-bromo-2-chlorophenyl)furan-2-yl)methylene)hydrazine-1-carbothioamide], the “competitive behavior against cruzain” value on cruzain is “did not observe competitive behavior”. For the same compound, the “SI: selectivity index” value in data set [1] is above 370. Also, at TbrCatL [2], the “effect of 0.1% Triton X-100 on IC50 against TbrCatL” value is “reduced the compounds’ potencies”.
What is called IC50 is the concentration that inhibits the measured activity by half. For the compound `Clc1cc(Br)ccc1-c1ccc(CNCC2CCNCC2)o1` [MB12, 1-(5-(4-bromo-2-chlorophenyl)furan-2-yl)-N-(piperidin-4-ylmethyl)methanamine], the IC50 on TbrCatL [3] is 50 µM. Also, in the data set on cathepsins S (human), the “inhibition of cathepsin S” value is given as “did not inhibit”. Also, the “inhibition of cathepsin B” value in the data set with cathepsins B (rat) is given as “did not inhibit”. For the same compound, in [4], the “replication of T. cruzi Y strain parasites and release from macrophages” value is on record as “decreased the replication”. In addition, the “cytotoxicity by lactate dehydrogenase release” value in the data set with macrophages was “no significant cytotoxicity”.
